Counter-ions that a name gives are not always drawn. Peptide text beside a SMILES is read from it.
Columns and labels:
pigs = experiment: growth assay, starter pig performance 0-21 days post-weaning; type: in vivo; conditions: for Daily gain: fed ad libitum
Description: (§1) A trial of 180 (21±2 days of age) pigs was used in a growth assay to compare the effects of supplementing the pigs' diet with L-lysine^. HCl, 98% (78.5% lysine), and the dipeptide L-lysyl-glycine^. HCl (approximately 50% lysine) on starter pig performance and nitrogen utilization. Pigs were blocked (n=5) by initial weight (6.3 kg) and assigned to treatments according to ancestry and sex. Feed and water were available ad libitum for 21 days post-weaning (11.7 kg final weight). The control diets were formulated to include 0.9% and 1.1% lysine respectively, using a corn-soybean meal mixture containing 15% edible grade dried whey. Synthetic lysine^. HCl and the dipeptide lysyl-glycine were added to the control diets to form test diets containing 1.0% and 1.1% lysine and lysyl-glycine respectively. The following table sets forth each of the six diets used in this study.
(§2) Serum samples were obtained on days 7, 14, and 21 for analysis of urea nitrogen. Data were analyzed as a randomized complete block design and means were separated using Bonferroni pared t-tests. Single df contrasts were used to evaluate differences between the two lysine sources and levels. No differences in daily gain or daily feed intake were observed between treatments. In general, pigs consuming the 1.1% lysine corn-soybean meal control diet had higher urea nitrogen than the pigs consuming the reduced protein diets and those consuming the 1.1% lysine, lysyl-glycine supplemented diet had the lowest urea nitrogen. Pigs consuming the diets containing lysyl-glycine had lower urea nitrogen levels than pigs fed the lysine^. HCl diets on day 21. […] HCl as evidenced by the lower serum urea nitrogen levels on day 21.

[1] = serum urea nitrogen (nitrogen utilization) in starter pigs; type: in vivo; conditions: for d 7 urea N: day 7; for d 14 urea N: day 14
Description: as §1, §2

[2] = serum, day 21, diet 1.0% lysine
[3] = serum, day 21, diet 1.1% lysine

SMILES | Daily feed (pigs; diet 1.0% lysine) [g] | Gain/feed (pigs; diet 1.0% lysine) | Daily gain (pigs; diet 1.0% lysine) [g] | Daily feed (pigs; diet 1.1% lysine) [g] | Gain/feed (pigs; diet 1.1% lysine) | Daily gain (pigs; diet 1.1% lysine) [g] | amino acid utilization compared with lysine HCl ([1]; as evidenced by lower serum urea nitrogen on day 21) | d 7 urea N ([1]; serum, diet 1.0% lysine) [mg/dL] | d 7 urea N ([1]; serum, diet 1.1% lysine) [mg/dL] | d 14 urea N ([1]; serum, diet 1.0% lysine) [mg/dL] | d 14 urea N ([1]; serum, diet 1.1% lysine) [mg/dL] | urea nitrogen levels compared with pigs fed the lysine HCl diets ([1]; serum, day 21, P = 0.05) | d 21 urea N [1, 2] [mg/dL] | d 21 urea N [1, 3] [mg/dL] | urea nitrogen compared with the other diets ([1]; serum, 1.1% lysine, lysyl-glycine supplemented diet, in general)
NCCCC[C@H](N)C(=O)NCC(=O)O [Lysyl-glycine, L-lysyl-glycine^. HCl] (H-Lys-Gly-OH) | 395 | 547 | 218 | 432 | 643 | 280 | more efficiently utilized | 9.7 | 8.5 | 8.9 | 8.6 | lower | 9.1 | 7.9 | lowest
NCCCC[C@H](N)C(=O)O [Lysine HCl, L-lysine^. HCl, reference compound] | 460 | 600 | 276 | 413 | 613 | 253 | – | 9.5 | 9.2 | 9.6 | 8.4 | – | 10.7 | 8.5 | –

From patent US5525350A, “Supplementation of protein diets with di- and tripeptides” (Kansas State University Research Foundation, priority 1994, dated 1996)
